Source: patent US10786481B2, “Hydroquinone compounds, preparation methods therefor, and use in anti-tumor or immunomodulation therapy” (Biomedical Analysis Center, Academy of Military Medical …, priority 2016, dated 2020)
Read-outs that look alike come from different tables or passages of the source.

Columns and labels:
monocytes = settings: via inhibition of ROS generation; Cell Research 2013, 23:898-914; cited from earlier work
mice [1] = test: Acute toxicity in mice, up-down method; type: in vivo; settings: mice, intragastric
Procedure: (§1) Detecting the acute toxicity of some of the compounds by using up-down method. Intragastric administrating a drug to the mice of 20˜22 g; lyase is corn oil, fasting for 12 h before administration, with free drinking.

[2] = Release experiment of target compound in human plasma; settings: 37° C., 5 min to 9 h
Procedure: Mobile phase: gradient elution; A: water; B: methanol;
Chromatographic column: CAPCEL PAK MF PH-1;
Detecting instrument: TQ-S; ion source: APCI; ion detection mode: MRM;
Dissolving the target compound with DMSO, then diluting to 5 μg/mL with the normal saline of 0.9%. The human blank plasma after subpackage is preserved at −70° C., unfreezing in a refrigerator at 4° C. when used. Take 20 μL of the blank plasma, adding 20 μL of the target compound solution as above formulated, vortexing for 15 s, and left it in the water bath at 37° C. […] Take the supernatant and inject 10 μL for detection.

[3] = Acute toxicity in mice, up-down method; type: in vivo; settings: mouse, in vivo
Procedure: as §1

[4] = test system: humanized embryonic nephrocyte (HEK293 cell); test: Cytotoxicity, MTS method, HEK293 cell; type: cell-based; settings: Homo sapiens
Description: (§2) The toxicity of compounds is detected with MTS method in the immortalized mice bone marrowmacrophages (IBMM), mice embryonic fibroblast (NIH3t3) and humanized embryonic nephrocyte.

[5] = test system: mice embryonic fibroblast (NIH3t3); test: Cytotoxicity, MTS method, NIH3T3 cell; type: cell-based; settings: Mus musculus
Description: as §2

[6] = test system: immortalized mice bone marrowmacrophages (IBMM); test: Cytotoxicity, MTS method, IBMM cell; type: cell-based; settings: Mus musculus, Bone marrow macrophage, read-out: IC50(mM) IBMM cell
Description: as §2

[7] = test system: lung cancer in K-rasLA2 model mice; settings: fodder of 0.75% BHA; Cell Research 2013, 23:898-914; cited from earlier work
Her2 breast cancer = test: Mice model with Her2 breast cancer; type: in vivo
macrophages M2 = test: Polarization of macrophages M2; settings: FIG. 1
[8] = Drug metabolism tests of BHA in vivo; set-up: species or system mice; settings: for half-life: mouse, plasma
mice [9] = test: Toxicology experiment of BHA in mice; type: in vivo
[10] = po, mice, intragastric, corn oil, up-down method, unit inferred
[11] = HEK293, MTS method, read-out: IC50(mM) HEK293 cell
[12] = NIH3T3, MTS method, read-out: IC50(mM) NIH3T3 cell

release of BHA in human plasma [2]	Molecule	differentiation of monocytes toward M2 macrophages (monocytes)	acute toxicity compared with BHA (mice [1])	LD50 [3, 10] [mg/kg]	IC50 [4, 11] [mM]	IC50 [5, 12] [mM]	IC50 ([6]; MTS method) [mM]	also measured
–	CC1(C)CCCC(C)(C)N1[O] [TEMPO]	inhibit differentiation of monocytes toward M2 macrophages	–	–	–	–	–	–
–	CC(=O)N[C@@H](CS)C(=O)O [NAC]	inhibit differentiation of monocytes toward M2 macrophages	–	–	–	–	–	–
–	COc1cc(C(C)=O)ccc1O [Apocynin]	inhibit differentiation of monocytes toward M2 macrophages	–	–	–	–	–	–
–	COc1ccc(O)c(C(C)(C)C)c1 [BHA, 2-tert-butyl-4-methoxyphenol]	inhibit differentiation of monocytes toward M2 macrophages	–	1100	–	–	–	generation of lung cancer [7]: completely inhibited; LD50 ([3]; oral, acute toxicity in mice, as restated): 1100 mg/kg; anti-tumor effects (Her2 breast cancer; HER2 mice model, 50-1000 mg/kg BW dosed in portions): obvious anti-tumor effects; metastasis in head (Her2 breast cancer; Her2 tumor model with the breast cancer, FIG. 1A): not observed; polarization effect of macrophages M2 (macrophages M2): inhibits the polarization effect of macrophages M2; IC50 ([4]; HEK293, read-out: IC50(mM) HEK293 cell): 0.325 mM; half-life ([8]; FIG. 2A and B, read-out: half-life of BHA in vivo): 30 to 60 min; half-life ([8]; mice, oral, read-out: T112 (half-life)): 20 min; time to peak ([8]; oral): 5 min; IC50 ([5]; NIH3T3, read-out: IC50(mM) NIH3T3 cell): 0.267 mM; toxic signs (mice [9]; 600 mg/kg, recover after half an hour): central effect of partially “hangover” state; mortality (mice [9]; 1100 mg/kg): Half of the mice with 1100 mg/kg are caused to die; time until symptoms of the toxic reaction disappear in survival mice (mice [9]; 1100 mg/kg): 30 to 60 min; toxic effect, long term dosing (mice [9]; low dose, long term dosed for two years): toxic effect is not seen; IC50 [6]: 0.218 mM
releases BHA	COc1ccc(OC(=O)Cc2ccc(OC)c(OC)c2)c(C(C)(C)C)c1 [XH2018, (2-tert-butyl-4-methoxyphenol) 3,4-dimethoxyphenylacetate]	–	–	–	0.386	0.333	0.13	–
releases BHA	COc1ccc(OC(=O)CC2CCCCC2)c(C(C)(C)C)c1 [XH2039-5, (2-tert-butyl-4-methoxyphenol) cyclohexylacetate]	–	–	–	0.087	0.106	0.067	–
releases BHA	COc1ccc(OC(=O)CC2CC2)c(C(C)(C)C)c1 [XH2040-2, (2-tert-butyl-4-methoxyphenol) cyclopropylacetate]	–	–	–	0.237	0.232	0.202	–
releases BHA	COc1ccc(OC(=O)c2ccccc2)c(C(C)(C)C)c1 [XH2005, 2-tert-butyl-4-methoxyphenol benzoate]	–	–	–	0.082	0.0875	0.439	–
releases BHA	CC#CC(=O)Oc1ccc(OC)cc1C(C)(C)C [XH2019, 2-tert-butyl-4-methoxyphenol butynoate]	–	–	–	0.037	0.0476	0.024	–

Molecule	release of BHA in human plasma [2]	differentiation of monocytes toward M2 macrophages (monocytes)	acute toxicity compared with BHA (mice [1])	LD50 [3, 10] [mg/kg]	IC50 [4, 11] [mM]	IC50 [5, 12] [mM]	IC50 ([6]; MTS method) [mM]	also measured
(2-tert-butyl-4-methoxyphenol) morpholin-4-yl acetate [XH2044-2]	releases BHA	–	lower than that of 2-tert-butyl-4-methoxyphenol-oxyl (BHA)	–	–	–	–	LD50 (mice [1]; corn oil, up-down method, unit inferred): > 1300 mg/kg
COc1ccc(OC(C)=O)c(C(C)(C)C)c1 [XH2006, 2-tert-butyl-4-methoxyphenol acetate]	releases BHA	–	lower than that of 2-tert-butyl-4-methoxyphenol-oxyl (BHA)	> 1200	0.118	0.021	0.443	–
COc1ccc(OC(=O)c2cccnc2)c(C(C)(C)C)c1 [XH2010, 2-tert-butyl-4-methoxyphenol nicotinate]	releases BHA	–	lower than that of 2-tert-butyl-4-methoxyphenol-oxyl (BHA)	> 1200	0.207	0.186	0.175	–
COc1ccc(OC(=O)c2ccncc2)c(C(C)(C)C)c1 [XH2011, 2-tert-butyl-4-methoxyphenol isonicotinate]	releases BHA	–	lower than that of 2-tert-butyl-4-methoxyphenol-oxyl (BHA)	> 1300	0.311	0.0326	0.119	–
